Data from US11286263B2, “Macrocyclic fluorine substituted indole derivatives” (The Broad Institute, Inc., priority 2017, dated 2022).
Several values for one entry are separate records, joined by “and”; a condition that tells them apart may be missing. Equal entries are not always repeated. Structures can show the parent of a compound that is named as a salt. Where two headings read alike, the source gives them in different places.

What was measured:
MCL-1 = MCL-1 (Homo sapiens (Human), UniProt Q07820, K194A/K197A/R201A); assay: Protein-protein interaction assay MCL-1/Noxa BH3 peptide (MCL-1 assay), TR-FRET; format: binding; settings: MCL-1/Noxa BH3 peptide TR-FRET; median
Sequence of MCL-1 (Q07820 whole entry K194A/K197A/R201A, looked up): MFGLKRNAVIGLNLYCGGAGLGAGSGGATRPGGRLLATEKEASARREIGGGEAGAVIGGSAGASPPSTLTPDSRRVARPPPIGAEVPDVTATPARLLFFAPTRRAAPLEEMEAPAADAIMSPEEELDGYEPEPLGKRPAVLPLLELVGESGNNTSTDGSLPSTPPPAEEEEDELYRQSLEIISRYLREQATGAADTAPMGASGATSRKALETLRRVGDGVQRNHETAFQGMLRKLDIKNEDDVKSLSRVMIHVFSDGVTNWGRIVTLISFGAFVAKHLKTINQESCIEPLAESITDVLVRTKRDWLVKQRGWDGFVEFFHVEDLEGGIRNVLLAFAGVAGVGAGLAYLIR
In short: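 TR-FRET competition between MBP-MCL-1 (173-321, 1 nM) and biotin-Noxa BH3 peptide (1 nM) with anti-MBP-Eu/streptavidin-XL665; 11 compound levels 0.1 nM–20 μM, 10 min preincubation. Incubated 1 h at 22 °C then overnight at 4 °C, pH 7 Tris buffer. 665/620 ratio normalized to DMSO and no-MCL-1; 4-parameter IC50.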

SUDHL5 [1] = assay: Induction of caspase-3/7 activity, SUDHL5 (Assay 4); format: cell-based; settings: SUDHL5 cells
In short: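 DLBCL lines treated with compounds for 3 h at 37° C.; caspase-3/7 activity read by Caspase-Glo 3/7 luminescence. Medium-only background subtracted; EC50 fitted with bottom fixed at 1 and top set to reference compound's maximal induction.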

SUDHL5 [2] = assay: Induction of cytotoxicity, SUDHL5 (Assay 6); settings: read-out: IC50 Cytotox SUDHL5 [M] (median), SUDHL5 cells, 5 h, CellTiter-Glo
Description: In principle, compounds that induce apoptosis will concomitantly induce cell cytotoxicity. Therefore, cytotoxicity assays were run in parallel in SUDHL5 and SUDHL10 cells.
The different cell lines were plated in culture medium (RPMI 1640 [GIBCO #22400-089] supplemented with 10% Fetal Bovine Serum) at a density of 3,300 cells in 30 μl/well in a sterile, solid black, flat bottom, polystyrene, TC-treated 384-well microplate (Corning #3571) using Multidrop Combi Reagent Dispenser. As a control, medium without cells was also added to the plate. Cells were incubated in a humidified incubator at 37° C. overnight. On the next day, the cells were treated with compounds (stock solution, 10 mM in DMSO) using the HP D300 Digital Dispenser in a concentration range of 3.3×10e-5 M (33 μM) to 5×10e-9 M (5 nM) in a single-dot curve with at least 16 dilutions and a DMSO concentration of 0.33%. Rim wells were excluded. The cells were incubated for 5 h hours in a humidified incubator at 37° C. After this incubation, 30 μl of CellTiter-Glo® Luminescent Cell Viability reagent (Promega, G7573) was added to each well using the Multidrop Combi Reagent Dispenser, followed by 15 min incubation on a shaker at room temperature. Finally, luminescence was read at 0.1 ms, with a gain of 3000 using the PHERAstar FS microplate reader (BMG Labtech).
The Bella DRC Master Sheet was used to calculate IC50s, with fixed CI=0 and C0=1.

A2780 = assay: Antiproliferation assay A2780 (Assay 7); format: cell-based; settings: A2780 cells, CellTiter-Glo, single determinations, read-out: IC50 Antiproli A2780
In short: (§1)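 Cells were exposed to compounds for 72 h at 37 °C in a humidified incubator, with rim wells excluded. Viability was read by CellTiter-Glo luminescence after a 10 min incubation. A parallel day 0 plate, read the same way, gave the time-zero baseline.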

MV-4-11 = assay: Antiproliferation assay MV-4-11 (Assay 7); format: cell-based; settings: MV-4-11 cells, CellTiter-Glo, single determinations, read-out: IC50 Antiproli MV-4-11
In short: as §1

[3] = Homo sapiens, SU-DHL-5, 3 h, Caspase-Glo 3/7, median

IC50 (MCL-1) [nM] | EC50 (SUDHL5 [1]; 3 h, Caspase-Glo 3/7, median) [nM] | IC50 (A2780; 72 h, listed as 03) | EC50 (SUDHL5 [1]; [3]) [nM] | IC50 (MV-4-11; 72 h) | IC50 (MV-4-11; Homo sapiens, MV4-11, 72 h) [nM] | IC50 (A2780; Homo sapiens, A2780, 72 h) [nM] | SMILES | IC50 (SUDHL5 [2]) [M] | IC50 (SUDHL5 [2]; Homo sapiens, SU-DHL-5, 5 h) [M]
1.3 | 650 | 23800 nM and 17600 nM and 15300 nM |  |  |  |  | Cc1c2c(nn1C)COCCCCn1c(C(=O)O)c(CCCOc3cccc4ccccc34)c3ccc(F)c-2c31 (single isomer, unassigned; enantiomer 1) [Example 3, 4-fluoro-2,3-dimethyl-7-[3-(naphthalen-1-yloxy)propyl]-2,10,11,12,13,15-hexahydropyrazolo-[4′,3′:9,10][1,6]oxazacycloundecino[8,7,6-hi]indole-8-carboxylic acid-N-ethylethanamine salt (enantiomer 1)] | 7.7e-07 | 
0.91 |  |  | 230 |  |  |  | CCc1c2c(nn1C)CN(C)CCCCn1c(C(=O)O)c(CCCOc3cccc4c3CCC4)c3ccc(F)c-2c31 (racemic) [Example 51, (rac)-7-[3-(2,3-dihydro-1H-inden-4-yloxy)propyl]-3-ethyl-4-fluoro-2,14-dimethyl-10,11,12,13,14,15-hexahydro-2H-pyrazolo[3′,4′:8,9][1,6]diazacycloundecino[10,11,1-hi]indole-8-carboxylic acid] |  | 3.6e-07
1.7 | 1800 |  |  | 5790 nM |  |  | CCc1nn(C)c2c1-c1c(F)ccc3c(CCCOc4ccc(F)c5ccccc45)c(C(=O)O)n(c13)CCCCOC2 (single isomer, unassigned; enantiomer 1) [Example 42, 3-ethyl-4-fluoro-7-{3-[(4-fluoronaphthalen-1-yl)oxy]propyl}-1-methyl-1,10,11,12,13,15-hexahydropyrazolo[4′,3′:9,10][1,6]oxazacycloundecino[8,7,6-hi]indole-8-carboxylic acid (enantiomer 1)] | 2e-06 | 
1.7 |  |  | 1600 |  | 9830 |  | CCc1nn(C)c2c1-c1c(F)ccc3c(CCCOc4cccc5c4CCCC5)c(C(=O)O)n(c13)CCCCOC2 (racemic) [Example 44, (rac)-12-ethyl-13-fluoro-10-methyl-1-(3-((5,6,7,8-tetrahydronaphthalen-1-yl)oxy)propyl)-4,5,6,7,9,10-hexahydropyrazolo[4′,3′:9,10][1]oxa[6]azacycloundecino[8,7,6-hi]indole-2-carboxylic acid] |  | 1.9e-06
1.6 |  |  | 840 | 2890 nM and 5610 nM | 3530 |  | Cc1c2c(nn1C)COCCCCn1c(C(=O)O)c(CCCOc3cccc4c3CCCC4)c3ccc(F)c-2c31 (racemic) [Example 18, (rac)-13-fluoro-11,12-dimethyl-1-(3-((5,6,7,8-tetrahydronaphthalen-1-yl)oxy)propyl)-4,5,6,7,9,11-hexahydropyrazolo[4′,3′:9,10][1]oxa[6]azacycloundecino[8,7,6-hi]indole-2-carboxylic acid] |  | 8.8e-07
0.58 |  |  |  |  |  |  | CCc1c2c(nn1C)COCCCCn1c(C(=O)O)c(CCCOc3cccc4cc(F)ccc34)c3ccc(F)c-2c31 (single isomer, unassigned; enantiomer 1) [Example 24, 3-ethyl-4-fluoro-7-{3-[(6-fluoronaphthalen-1-yl)oxy]propyl}-2-methyl-2,10,11,12,13,15-hexahydropyrazolo[4′,3′:9,10][1,6]oxazacycloundecino[8,7,6-hi]indole-8-carboxylic acid (enantiomer 1)] | 3.9e-07 | 
1.5 | 660 |  |  |  |  |  | CCc1c2c(nn1C)COCCCCn1c(C(=O)O)c(CCCOc3ccc(F)c4ccccc34)c3ccc(F)c-2c31 (single isomer, unassigned; enantiomer 1) [Example 27, 3-ethyl-4-fluoro-7-{3-[(4-fluoronaphthalen-1-yl)oxy]propyl}-2-methyl-2,10,11,12,13,15-hexahydropyrazolo[4′,3′:9,10][1,6]oxazacycloundecino[8,7,6-hi]indole-8-carboxylic acid-N-ethylethanamine salt (enantiomer 1)] | 1e-06 | 
0.45 | 210 |  |  |  |  | 3880 | CCc1c2c(nn1C)COCCCCn1c(C(=O)O)c(CCCOc3cccc4cc(F)ccc34)c3ccc(F)c-2c31 (single isomer, unassigned; enantiomer 1) [Example 22, 3-ethyl-4-fluoro-7-{3-[(6-fluoronaphthalen-1-yl)oxy]propyl}-2-methyl-2,10,11,12,13,15-hexahydropyrazolo[4′,3′:9,10][1,6]oxazacycloundecino[8,7,6-hi]indole-8-carboxylic acid-N-ethylethanamine salt (enantiomer 1)] | 3.3e-07 | 
2 |  |  | 2500 | 11400 nM | 21000 |  | CCc1nn(C)c2c1-c1c(F)ccc3c(CCCOc4cc(C)c(Cl)c(C)c4)c(C(=O)O)n(c13)CCCCOC2 (racemic) [Example 46, (rac)-1-(3-(4-chloro-3,5-dimethylphenoxy)propyl)-12-ethyl-13-fluoro-10-methyl-4,5,6,7,9,10-hexahydropyrazolo[4′,3′:9,10][1]oxa[6]azacycloundecino[8,7,6-hi]indole-2-carboxylic acid] |  | 3.1e-06
1.7 |  |  | 280 |  |  |  | CCc1c2c(nn1C)CN(C)CCCCn1c(C(=O)O)c(CCCOc3cccc4c3CCCC4)c3ccc(F)c-2c31 (racemic) [Example 52, (rac)-3-ethyl-4-fluoro-2,14-dimethyl-7-[3-(5,6,7,8-tetrahydronaphthalen-1-yloxy)propyl]-10,11,12,13,14,15-hexahydro-2H-pyrazolo[3′,4′:8,9][1,6]diazacycloundecino[10,11,1-hi]indole-8-carboxylic acid] |  | 4.3e-07
9.6 | 2700 |  |  | 15500 nM |  |  | CCc1c2c(nn1C)COCCCCn1c(C(=O)O)c(CCCOc3cccc4cc(F)ccc34)c3ccc(F)c-2c31 (single isomer, unassigned; enantiomer 2) [Example 23, 3-ethyl-4-fluoro-7-{3-[(6-fluoronaphthalen-1-yl)oxy]propyl}-2-methyl-2,10,11,12,13,15-hexahydropyrazolo[4′,3′:9,10][1,6]oxazacycloundecino[8,7,6-hi]indole-8-carboxylic acid-N-ethylethanamine salt (enantiomer 2)] | 3.2e-06 | 
0.72 |  |  | 230 |  |  |  | CCc1c2c(nn1C)CN(C)CCCCn1c(C(=O)O)c(CCCOc3cccc4ccccc34)c3ccc(F)c-2c31 (racemic) [Example 54, (rac)-3-ethyl-4-fluoro-2,14-dimethyl-7-[3-(1-naphthyloxy)propyl]-10,11,12,13,14,15-hexahydro-2H-pyrazolo[3′,4′:8,9][1,6]diazacycloundecino[10,11,1-hi]indole-8-carboxylic acid] |  | 4.5e-07
1.3 |  |  | 970 |  |  |  | Cc1c2c(nn1C)COCCCCn1c(C(=O)O)c(CCCOc3ccc(F)c4ccccc34)c3ccc(F)c-2c31 (racemic) [Example 15, (rac)-13-fluoro-1-(3-((4-fluoronaphthalen-1-yl)oxy)propyl)-11,12-dimethyl-4,5,6,7,9,11-hexahydropyrazolo[4′,3′:9,10][1]oxa[6]azacycloundecino[8,7,6-hi]indole-2-carboxylic acid] |  | 1.1e-06
1.5 |  |  | 1400 | 5540 nM | 8180 |  | Cc1cc(OCCCc2c(C(=O)O)n3c4c(c(F)ccc24)-c2c(nn(C)c2C)COCCCC3)cc(C)c1Cl (racemic) [Example 20, (rac)-1-(3-(4-chloro-3,5-dimethylphenoxy)propyl)-13-fluoro-11,12-dimethyl-4,5,6,7,9,11-hexahydropyrazolo[4′,3′:9,10][1]oxa[6]azacycloundecino[8,7,6-hi]indole-2-carboxylic acid] |  | 1.8e-06
1.9 | 720 |  |  | 3550 nM |  |  | Cc1c2c(nn1C)COCCCCn1c(C(=O)O)c(CCCOc3ccc(F)c4ccccc34)c3ccc(F)c-2c31 (single isomer, unassigned; enantiomer 1) [Example 16, 4-fluoro-7-{3-[(4-fluoronaphthalen-1-yl)oxy]propyl}-2,3-dimethyl-2,10,11,12,13,15-hexahydro-pyrazolo[4′,3′:9,10][1,6]oxazacycloundecino[8,7,6-hi]indole-8-carboxylic acid (enantiomer 1)] | 1.4e-06 | 
0.91 |  |  | 380 |  |  |  | CCc1c2c(nn1C)CN(C)CCCCn1c(C(=O)O)c(CCCOc3cccc4cc(F)ccc34)c3ccc(F)c-2c31 (racemic) [Example 53, (rac)-3-ethyl-4-fluoro-7-{3-[(6-fluoro-1-naphthyhoxy]propyl}-2,14-dimethyl-10,11,12,13,14,15-hexahydro-2H-pyrazolo[3′,4′:8,9][1,6]diazacycloundecino[10,11,1-hi]indole-8-carboxylic acid] |  | 3.3e-07
